In PubChem BioAssay (NCI):
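Step 1: Grow cells in 96-well plates. Step 2: Expose to compound for 48 hours at 5 concentrations. Step 3: Interpolate endpoints linearly; if unreached, use highest concentration. GI50: concentration for 50% inhibition of growth. At the TGI there is no net growth.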

How the values were obtained:
Test in all cases: NCI anticancer screen, dose series, 48 h
[1] = system: HCT-116 colon
[2] = system: SN12C renal
[3] = system: HCC-2998 colon
[4] = system: COLO 205 colon
[5] = system: OVCAR-4 ovarian
[6] = system: MCF7 breast
[7] = system: 786-0 renal
[8] = system: SK-MEL-2 melanoma
[9] = system: M19-MEL melanoma

| Compound | GI50 [1] [µM] | TGI [1] [µM] | GI50 [2] [µM] | TGI [2] [µM] | GI50 [3] [µM] | TGI [3] [µM] | GI50 [4] [µM] | TGI [4] [µM] | GI50 [5] [µM] | TGI [5] [µM] | GI50 [6] [µM] | TGI [6] [µM] | GI50 [7] [µM] | TGI [7] [µM] | GI50 [8] [µM] | TGI [8] [µM] | TGI [9] [µM] |
| --- | --- | --- | --- | --- | --- | --- | --- | --- | --- | --- | --- | --- | --- | --- | --- | --- | --- |
| O=c1c2cccc(Cl)c2sc2c(NCCCNCCO)nc3ccccc3c12 | 1.57 | 3.13 | 2.62 | 14 | 1.62 | 3.02 | 1.9 | 4.39 | 5.43 | 19.6 | 1.13 | 2.66 | 1.69 | 3.52 | 10.9 | 26.3 | – |
| COc1ccc2c(c1)c(-c1ccc(-c3cn(S(=O)(=O)c4ccccc4)c4ccc(OC)cc34)s1)cn2S(=O)(=O)c1ccccc1 | > 100 | > 100 | > 100 | > 100 | > 100 | > 100 | > 100 | > 100 | > 100 | > 100 | > 100 | > 100 | > 100 | > 100 | > 100 | > 100 | – |
| O=C(Nc1ccccc1O)c1cccc(NC2=C(Cl)C(=O)N(Cc3ccccc3)C2=O)c1 | 2.97 | 12.1 | 2.22 | 7.57 | 3.33 | 13.4 | 13.2 | 40 | 10.3 | 45.4 | 2.7 | 14.8 | 2.3 | 6.78 | 6.07 | 24.1 | – |
| CC[C@@H](C(=O)[C@@H](C)[C@@H](O)[C@H](C)[C@@H]1O[C@@H]([C@@H](CC)C(=O)O)CC[C@@H]1C)C1O[C@]2(C=CC(=O)[C@]3(CC[C@@](C)([C@H]4CC[C@](O)(CC)[C@H](C)O4)O3)O2)[C@H](C)C[C@@H]1C (some centres not stated) | 0.69 | 15.3 | 0.179 | 15 | 0.152 | 12.6 | 0.159 | 2.1 | 1.1 | 17.9 | 0.0669 | 12.8 | 0.987 | 14.5 | 1.04 | 7.03 | – |
| CC(C)(C)NC(C1=CC(C)(C)c2ccccc2C1=O)c1ccccc1 (configuration not stated) | 1.35 | 2.64 | 1.61 | 3.57 | 1.66 | 3.1 | 1.35 | 2.63 | 1.51 | 5.93 | 1.32 | 2.59 | 1.75 | 3.13 | 1.49 | 3.08 | – |
| CCOC(C)C(/C=N/NC(N)=S)=NNC(N)=S (configuration not stated) | – | – | – | > 100 | – | > 100 | – | > 100 | – | > 100 | – | – | – | > 100 | – | > 85.3 | > 100 |
| COc1ccc2c(c1)C(=O)/C(=C/c1cccc(OCC(=O)Nc3nc4c(s3)CCCC4)c1)O2 | 1.13 | 2.34 | 1.63 | 6.81 | 1.83 | 3.44 | 0.729 | 2.02 | 2.57 | 8.52 | 2.83 | 11.8 | 0.15 | 0.346 | 0.577 | 1.34 | – |
| Cn1ccnc1C(=O)/C=C/c1ccc(C(=O)Nc2ccc(Cl)cc2)cc1 | 0.514 | 1.08 | 1.01 | 5.07 | 0.655 | 1.43 | 1.03 | > 33.3 | 0.981 | > 33.3 | 0.899 | 24.1 | 0.761 | 1.82 | 7.68 | > 33.3 | – |
| CC1=C[C@H]2c3c(c(O)c(O)c4oc5c(C)cccc5c(=O)c34)[C@H](c3cc(O)c(O)c4oc5c(C)cccc5c(=O)c34)[C@H]2C(C)(C)C1 | 0.899 | 2.69 | 1.69 | 6.7 | 1.45 | 3.47 | 2.41 | 6.8 | 1.51 | 14.7 | 2 | 6.3 | 2.85 | 9.29 | 2.05 | 5.1 | – |
| O=C1CC(c2ccc(N3CCOCC3)cc2)(c2ccsc2)NC(=O)C1Sc1ccccc1Cl (configuration not stated) | 25.4 | > 100 | 10.1 | > 100 | > 100 | > 100 | > 100 | > 100 | > 100 | > 100 | 57.2 | > 100 | 6.53 | > 100 | 49.3 | > 100 | – |
| COc1ccccc1OCC(=O)Nc1sc2c(c1C(N)=O)CCC2 | > 100 | > 100 | > 100 | > 100 | > 100 | > 100 | > 100 | > 100 | > 100 | > 100 | > 100 | > 100 | > 100 | > 100 | – | 68 | – |
| COc1cccc(C2c3cc4c(cc3OC(C)(O)C2C)OCO4)c1O (configuration not stated) | – | 19.7 | – | 62.3 | – | 24.1 | – | 6.15 | – | > 96.1 | – | 49.6 | – | 68.5 | – | 65.3 | – |
| COc1cc(C(=O)c2ccc3c(c2)OCO3)cc(OC)c1OC | 2.08 | > 100 | 6.86 | > 100 | 9.73 | > 100 | 1.37 | 6.2 | 5.14 | > 100 | 0.824 | > 100 | 10.5 | > 100 | 2.53 | > 100 | – |
| CC[C@H](C)[C@H]1NC(=O)[C@@H](N[C@](C)(O)[C@@H](N)CC(C)C)[C@@H](C)OC(=O)[C@H](Cc2ccc(OC)cc2)N(C)C(=O)[C@@H]2CCCN2C(=O)[C@H](CC(C)C)NC(=O)[C@@H](C)C(=O)[C@H](C(C)C)OC(=O)C[C@@H]1O | 0.00608 | 50 | 0.0115 | 0.316 | 0.0197 | 0.361 | 0.0108 | 0.073 | 0.0189 | 0.365 | 0.00735 | 0.166 | 0.0225 | 2.94 | 0.00972 | 0.0499 | – |
| COc1cc(-c2nc(Nc3nc4ccccc4[nH]3)nc(N)c2C#N)cc(OC)c1OC | 4.52 | 25.8 | 29.1 | > 100 | > 40.8 | > 100 | 1.74 | > 50.7 | 12.9 | 34.7 | 0.503 | > 33.8 | 20.2 | > 100 | 2.69 | 34 | – |
